Data published in PMC4452912 (Viruses, 2015).
Where two headings read alike, the source gives them in different places.

Assays:
in vitro [1] = type: in vitro ADME; conditions: human, microsomes
hERG = biological target: T1, hERG (Homo sapiens, UniProt Q12809); assay: Functional hERG assay, automated whole-cell patch clamp in CHO cells; type: cell-based
T1 construct: expressed in transfected cells; host or cells: CHO

in vitro [2] = type: in vitro ADME; conditions: mouse, plasma
[3] = 10 day repeat dose oral safety study in mice; type: in vivo, Swiss Albino mice; conditions: male mice
in vitro [4] = type: cell-based, canine; conditions: dog
ER α-glucosidase I [5] = biological target: T2, ER α-glucosidase I (Rattus norvegicus, UniProt O88941); assay: Purified enzyme inhibition, ER α-glucosidase I; type: biochemical
T2 sequence (O88941 1-834): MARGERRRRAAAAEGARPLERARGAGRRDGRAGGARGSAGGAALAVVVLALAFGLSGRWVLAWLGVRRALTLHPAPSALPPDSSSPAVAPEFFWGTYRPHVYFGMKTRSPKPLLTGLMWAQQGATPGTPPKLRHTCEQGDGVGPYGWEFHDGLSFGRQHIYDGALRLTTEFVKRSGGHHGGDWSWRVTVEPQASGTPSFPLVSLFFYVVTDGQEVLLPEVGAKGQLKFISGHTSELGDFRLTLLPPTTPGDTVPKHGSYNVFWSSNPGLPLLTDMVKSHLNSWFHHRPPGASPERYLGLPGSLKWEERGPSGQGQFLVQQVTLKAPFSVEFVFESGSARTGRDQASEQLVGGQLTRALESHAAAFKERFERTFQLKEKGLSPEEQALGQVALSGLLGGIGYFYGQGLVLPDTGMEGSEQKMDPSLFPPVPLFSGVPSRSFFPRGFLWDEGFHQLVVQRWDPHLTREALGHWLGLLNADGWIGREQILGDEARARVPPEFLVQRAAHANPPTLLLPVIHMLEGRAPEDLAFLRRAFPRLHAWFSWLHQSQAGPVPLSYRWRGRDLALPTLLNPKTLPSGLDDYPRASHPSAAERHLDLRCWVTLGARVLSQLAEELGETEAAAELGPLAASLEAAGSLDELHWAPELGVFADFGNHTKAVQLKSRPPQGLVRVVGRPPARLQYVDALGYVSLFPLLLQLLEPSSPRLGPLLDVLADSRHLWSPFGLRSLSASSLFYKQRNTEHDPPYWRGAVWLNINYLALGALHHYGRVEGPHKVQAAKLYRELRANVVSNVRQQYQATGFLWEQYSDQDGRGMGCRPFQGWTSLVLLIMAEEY

CYP2C9 = CYP2C9 (Homo sapiens, UniProt P11712); assay: CYP inhibition in human liver microsomes, CYP2C9; type: in vitro ADME
Sequence of CYP2C9 (P11712 whole entry): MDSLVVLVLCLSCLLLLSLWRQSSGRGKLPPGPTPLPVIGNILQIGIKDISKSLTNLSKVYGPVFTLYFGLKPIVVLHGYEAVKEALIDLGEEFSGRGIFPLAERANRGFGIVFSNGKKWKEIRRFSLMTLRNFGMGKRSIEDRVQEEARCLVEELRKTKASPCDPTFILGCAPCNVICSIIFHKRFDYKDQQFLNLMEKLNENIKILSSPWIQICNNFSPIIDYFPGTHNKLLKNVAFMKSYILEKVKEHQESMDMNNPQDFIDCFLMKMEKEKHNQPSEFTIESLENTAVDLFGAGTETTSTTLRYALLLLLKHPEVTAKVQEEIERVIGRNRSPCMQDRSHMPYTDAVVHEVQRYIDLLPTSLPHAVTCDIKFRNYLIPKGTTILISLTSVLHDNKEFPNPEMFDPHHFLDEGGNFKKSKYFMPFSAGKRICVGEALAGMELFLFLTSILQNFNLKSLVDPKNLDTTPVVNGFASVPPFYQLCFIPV

ER α-glucosidase II = ER α-glucosidase II (Rattus norvegicus, UniProt A0A8I6GFL3); assay: Purified enzyme inhibition, ER α-glucosidase II; type: biochemical; conditions: rat liver enzyme
Sequence of ER α-glucosidase II (A0A8I6GFL3 33-944): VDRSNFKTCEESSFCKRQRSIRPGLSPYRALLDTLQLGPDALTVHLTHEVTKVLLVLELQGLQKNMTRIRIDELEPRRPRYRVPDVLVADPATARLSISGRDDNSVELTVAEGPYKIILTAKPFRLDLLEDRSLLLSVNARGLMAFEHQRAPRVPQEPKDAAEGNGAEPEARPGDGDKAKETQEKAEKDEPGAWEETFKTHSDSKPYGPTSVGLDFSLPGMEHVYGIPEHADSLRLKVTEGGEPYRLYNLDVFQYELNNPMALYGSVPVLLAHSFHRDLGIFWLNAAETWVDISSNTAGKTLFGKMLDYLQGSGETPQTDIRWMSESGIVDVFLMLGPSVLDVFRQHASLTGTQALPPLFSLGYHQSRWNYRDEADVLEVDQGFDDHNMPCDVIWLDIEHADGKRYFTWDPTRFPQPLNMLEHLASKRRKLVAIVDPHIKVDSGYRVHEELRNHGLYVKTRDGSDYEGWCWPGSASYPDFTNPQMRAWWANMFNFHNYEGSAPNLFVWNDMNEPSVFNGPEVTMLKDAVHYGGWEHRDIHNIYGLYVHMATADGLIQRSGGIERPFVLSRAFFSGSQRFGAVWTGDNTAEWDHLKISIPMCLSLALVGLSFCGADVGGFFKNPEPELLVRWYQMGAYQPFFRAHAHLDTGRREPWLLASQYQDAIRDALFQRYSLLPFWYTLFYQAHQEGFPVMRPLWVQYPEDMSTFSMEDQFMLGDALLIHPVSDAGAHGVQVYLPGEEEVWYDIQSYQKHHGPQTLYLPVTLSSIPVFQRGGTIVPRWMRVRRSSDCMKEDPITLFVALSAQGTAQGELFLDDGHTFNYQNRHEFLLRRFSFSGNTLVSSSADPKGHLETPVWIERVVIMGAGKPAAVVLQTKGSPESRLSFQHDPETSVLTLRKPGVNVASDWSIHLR

ER α-glucosidase I [6] = biological target: T3, ER α-glucosidase I (Bos taurus, UniProt A0A3Q1M9D9); type: cell-based
T3 sequence (A0A3Q1M9D9 1-839): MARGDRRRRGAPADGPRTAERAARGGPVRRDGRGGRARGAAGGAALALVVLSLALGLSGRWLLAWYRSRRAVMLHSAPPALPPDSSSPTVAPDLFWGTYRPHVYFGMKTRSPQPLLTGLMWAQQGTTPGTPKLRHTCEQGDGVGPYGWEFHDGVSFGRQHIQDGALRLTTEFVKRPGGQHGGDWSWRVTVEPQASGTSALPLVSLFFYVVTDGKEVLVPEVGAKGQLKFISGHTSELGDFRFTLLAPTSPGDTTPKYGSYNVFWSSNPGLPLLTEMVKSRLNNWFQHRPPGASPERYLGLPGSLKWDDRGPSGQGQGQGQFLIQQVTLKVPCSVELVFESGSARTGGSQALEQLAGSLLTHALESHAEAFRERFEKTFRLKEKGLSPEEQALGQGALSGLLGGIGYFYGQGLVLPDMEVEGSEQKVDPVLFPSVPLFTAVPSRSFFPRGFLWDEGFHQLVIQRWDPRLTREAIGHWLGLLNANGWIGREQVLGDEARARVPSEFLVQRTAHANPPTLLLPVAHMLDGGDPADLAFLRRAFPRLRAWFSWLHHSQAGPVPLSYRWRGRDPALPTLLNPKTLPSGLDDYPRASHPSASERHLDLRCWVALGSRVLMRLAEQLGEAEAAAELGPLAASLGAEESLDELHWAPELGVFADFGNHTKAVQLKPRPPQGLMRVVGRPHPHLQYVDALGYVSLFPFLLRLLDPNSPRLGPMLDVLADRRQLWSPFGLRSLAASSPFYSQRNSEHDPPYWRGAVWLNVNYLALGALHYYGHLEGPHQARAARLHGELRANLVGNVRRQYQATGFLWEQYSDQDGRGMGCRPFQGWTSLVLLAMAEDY

CYP2C19 = CYP2C19 (Homo sapiens, UniProt P33261); assay: CYP inhibition in human liver microsomes, CYP2C19; type: in vitro ADME
Sequence of CYP2C19 (P33261 whole entry): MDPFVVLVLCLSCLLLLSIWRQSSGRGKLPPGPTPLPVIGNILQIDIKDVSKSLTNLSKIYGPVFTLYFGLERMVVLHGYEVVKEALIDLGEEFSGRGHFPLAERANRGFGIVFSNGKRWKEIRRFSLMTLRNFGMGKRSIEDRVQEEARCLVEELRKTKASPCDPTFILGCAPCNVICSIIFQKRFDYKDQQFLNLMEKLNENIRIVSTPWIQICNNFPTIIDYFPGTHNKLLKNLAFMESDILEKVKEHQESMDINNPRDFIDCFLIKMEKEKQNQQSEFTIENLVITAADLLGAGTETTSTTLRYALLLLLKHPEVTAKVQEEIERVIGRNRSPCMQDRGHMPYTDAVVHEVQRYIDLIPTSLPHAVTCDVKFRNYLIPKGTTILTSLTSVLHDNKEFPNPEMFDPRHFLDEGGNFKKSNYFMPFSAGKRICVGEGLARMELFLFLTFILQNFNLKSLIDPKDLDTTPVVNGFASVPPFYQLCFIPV

CYP1A2 = biological target: T4, CYP1A2 (Homo sapiens, UniProt P05177); assay: CYP inhibition in human liver microsomes, CYP1A2; type: in vitro ADME
T4 sequence (P05177 1-516): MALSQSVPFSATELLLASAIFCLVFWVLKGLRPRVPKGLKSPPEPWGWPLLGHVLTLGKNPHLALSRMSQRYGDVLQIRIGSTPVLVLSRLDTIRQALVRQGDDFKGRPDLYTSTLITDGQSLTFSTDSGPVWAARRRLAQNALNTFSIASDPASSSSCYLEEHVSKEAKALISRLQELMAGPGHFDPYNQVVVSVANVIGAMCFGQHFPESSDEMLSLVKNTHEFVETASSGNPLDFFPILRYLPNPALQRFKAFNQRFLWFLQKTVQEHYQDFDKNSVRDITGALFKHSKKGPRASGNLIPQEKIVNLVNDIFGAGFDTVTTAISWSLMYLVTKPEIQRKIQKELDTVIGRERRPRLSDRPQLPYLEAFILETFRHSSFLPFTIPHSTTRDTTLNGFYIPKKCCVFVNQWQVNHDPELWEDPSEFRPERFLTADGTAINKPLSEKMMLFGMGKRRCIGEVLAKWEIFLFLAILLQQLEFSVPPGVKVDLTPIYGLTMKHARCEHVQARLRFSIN

[7] = 100 mg/kg PO TID 10 days, vs control

T1 sequence (Q12809 whole entry): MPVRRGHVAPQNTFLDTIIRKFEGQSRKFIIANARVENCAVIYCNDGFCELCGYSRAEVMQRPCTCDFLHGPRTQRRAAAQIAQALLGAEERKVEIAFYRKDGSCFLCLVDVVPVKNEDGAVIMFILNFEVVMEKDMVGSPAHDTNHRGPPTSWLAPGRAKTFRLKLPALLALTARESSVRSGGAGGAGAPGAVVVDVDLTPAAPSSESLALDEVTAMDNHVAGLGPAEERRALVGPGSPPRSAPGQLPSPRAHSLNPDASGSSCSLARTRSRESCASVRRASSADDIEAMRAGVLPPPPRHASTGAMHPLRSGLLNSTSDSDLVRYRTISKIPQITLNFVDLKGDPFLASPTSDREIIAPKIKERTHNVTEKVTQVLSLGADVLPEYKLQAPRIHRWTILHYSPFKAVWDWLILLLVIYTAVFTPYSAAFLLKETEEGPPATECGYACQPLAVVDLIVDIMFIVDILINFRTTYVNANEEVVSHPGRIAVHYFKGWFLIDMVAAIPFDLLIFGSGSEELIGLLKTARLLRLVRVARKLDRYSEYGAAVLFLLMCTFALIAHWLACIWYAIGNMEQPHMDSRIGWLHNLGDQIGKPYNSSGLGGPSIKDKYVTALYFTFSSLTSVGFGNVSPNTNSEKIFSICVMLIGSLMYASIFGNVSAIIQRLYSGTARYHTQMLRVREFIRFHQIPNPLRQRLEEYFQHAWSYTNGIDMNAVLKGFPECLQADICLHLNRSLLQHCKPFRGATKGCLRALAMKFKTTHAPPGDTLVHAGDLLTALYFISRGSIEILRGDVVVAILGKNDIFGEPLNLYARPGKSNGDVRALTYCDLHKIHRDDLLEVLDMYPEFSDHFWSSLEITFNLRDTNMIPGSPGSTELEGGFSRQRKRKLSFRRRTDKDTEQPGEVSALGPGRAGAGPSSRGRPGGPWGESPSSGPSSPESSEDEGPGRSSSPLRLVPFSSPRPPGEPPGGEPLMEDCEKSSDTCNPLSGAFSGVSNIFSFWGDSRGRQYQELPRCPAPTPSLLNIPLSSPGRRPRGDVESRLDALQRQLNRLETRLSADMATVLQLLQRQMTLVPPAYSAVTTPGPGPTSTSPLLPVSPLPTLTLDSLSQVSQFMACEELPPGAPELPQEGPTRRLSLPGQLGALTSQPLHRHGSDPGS

OC[C@@H]1[C@@H](O)[C@H](O)[C@@H](O)CN1CCCCCCCCC1CCCO1 (stereo partly shown) [UV-12]
Liver microsome metabolic stability CLintr (in vitro [1]): <0.6 mL/min/g liver | half-life at 0.5 µM (in vitro [1]): > 0.5 h | parent drug remained after 30 min (in vitro [1]; 0.5 h, 0.5 µM): 100% | inhibition at 30 µM (hERG; human, CHO cells stably transfected with hERG, 30 μM, read-out: inhibition of hERG current): 18.2% | inhibition at 100 µM (hERG; human, CHO cells stably transfected with hERG, 100 μM, read-out: inhibition of hERG current): 4.6% | inhibition at 300 µM (hERG; human, CHO cells stably transfected with hERG, 300 μM, read-out: inhibition of hERG current): 19.1% | IC50 (hERG; patch clamp, CHO-hERG, read-out: hERG Inhibition): > 300000 nM | fraction unbound at 6 h, 10 μM (in vitro [2]): 0.36 | average weight lost at end of treatment ([3]; 100 mg/kg PO TID 10 days): 1.72 g | thymus finding at necropsy/histopathology ([3]; 100 mg/kg PO TID 10 days, associated with decreased thymus weight): lymphoid depletion | average weight lost at end of treatment ([3]; 100 mg/kg PO TID 10 days, not statistically significant): 4.53% | decreased ALP [3, 7]: 45% | decreased glucose [3, 7]: 29% | increased AST [3, 7]: 76% | mortality, general health, body weights, food consumption ([3]; 100 mg/kg PO three times daily, 10 days): neither mortality nor any noteworthy effects | CC50 at 5 days (in vitro [4]): > 500000 nM | IC50 (ER α-glucosidase I [5]): 140 ± 100 nM | IC50 (CYP2C9): > 100000 nM | IC50 (ER α-glucosidase II; Glc1 substrate, mean and SD, triplicate, read-out: IC50 α-glc II, Glc1): 830 ± 370 nM | IC50 (ER α-glucosidase II; Glc2 substrate, mean and SD, triplicate, read-out: IC50 α-glc II, Glc2): 1100 ± 480 nM | IC50 (ER α-glucosidase II; range over the two activities (Glc2, Glc1), read-out: IC50 for α-glucosidase II): 830 to 1100 nM | cellular half-life of UV-12 inhibition (blockage of α-glucosidase I) (ER α-glucosidase I [6]): 5.11 ± 1.82 h | reversibility of inhibition in cells (ER α-glucosidase I [6]; MDBK cells): reversible inhibitor | IC50 (CYP2C19): > 100000 nM | IC50 (CYP1A2): > 100000 nM
